How the values were obtained:
Type in all cases: cell-based, human
[1] = tested on: control and ERCC6L2^−/− cells; assay: Nascent DNA degradation assay (DNA combing); conditions: 3 mM hydroxyurea, 4 h; IdU/CldU track ratio; N(tracks)>700
Procedure: Control and ERCC6L2^−/− cells were labeled with 100 μM CldU, followed by 100 μM IdU in the presence of 10 μM Polα inhibitor CD437. Each pulse lasted 40 min. Cells were then trypsinised and embedded in agarose plugs using a kit from Genomic Vision according to the manufacturer’s instructions. DNA was extracted and purified from the agarose plugs, and stretched onto silanised coverslips with the molecular combing system (Genomic Vision). CldU was detected with rat anti-BrdU antibody (Abcam, BU1/75) and Alexa Fluor 594 conjugated secondary antibody (Thermo Fisher Scientific). ldU was detected with mouse anti-BrdU antibody (Becton Dickinson, BD44) and Alexa Fluor 488 conjugated secondary antibody (Thermo Fisher Scientific). […] More than 1500 tracks were analyzed per condition.
For nascent DNA degradation assay, cells were sequentially incubated with 100 μM CldU and 100 μM IdU. […] More than 700 tracks were analyzed per condition. […]
Error bars represent standard errors from 3 independent experiments. […] U2OS cells were transfected with YFP-ERCC6L2 constructs and monitored by live cell imaging following laser induced DNA damage. […]
(F) Valida?on of siRNA against CTC1 and C20orf196. […] For BRCA1, RIF1, REV7, 53BP1, BLM and CtIP, cells were transfected as in F, and endogenous proteins were detected by speciﬁc an?bodies. […] Expression was detected by an?-FLAG or an?-GFP an?bodies, as indicated. […]

pRPA32 = assay: pRPA levels (ssDNA marker); conditions: 50 µg/ml phleomycin for 12 h; vs control cells
Procedure: For quantitative analysis of pRPA, RAD51, γH2AX, and EdU foci, non-overlapping images were acquired using a 20x objective lens. Image analysis was performed using CellProfiler.[98] For quantification of TRF1-and CENP-C-positive micronuclei, random non-overlapping images were acquired, and Z-stacks were further collected for each micronucleus to examine the presence of TRF1 and CENP-C foci. […]
(§1) 0.8 ControlERCC6L2ControlERCC6L2
(§2) 0.4 28 kDa short exposure […]
(§3) Figure S12. DNA damage-induced changes in control and ERCC6L2 -/- cells. Related to Figure 6.
(§4) (A) Box and whisker plots measuring average pRPA intensi?es in control and ERCC6L2-/- cells. Cells were either untreated, or exposed to 50 µg /ml phleomycin for 12 h, before ﬁxa?on and staining. N(images)>180, N(cells)>28,000. (B) Representa?ve images of phleomycin treated cells used for quan?ﬁca?ons in A. Shown are expressions of indicated proteins, with zoomed images of cells in coloured frames.
(§5) (C) Analysis of pRPA levels by western blot. Treatments were as in A. (D) Box and whisker plots measuring average pKAP1 intensi?es in control and ERCC6L2-/- cells. Cells were either untreated, or exposed to 50 µg /ml phleomycin for 12 h, before ﬁxa?on and staining.
N(images)>180, N(cells)>28,000. […]

CENP-B = CENP-B intensities by QIBC after genotoxic stress; conditions: 1 h, 5 h recovery, N(cells)>30,000
[2] = tested on: control and ERCC6L2^−/− U2OS cells; assay: Clonogenic survival assay; conditions: 11 days, 3 independent experiments, ERCC6L2^−/− vs control U2OS
Procedure: Cells were seeded in 6-well plates (approximately 700 cells/well) and either left untreated or treated with the indicated concentrations of genotoxic agents. Cells were then grown for 11 days to allow colony formation. Colonies were stained with 5 mg/ml crystal violet (Sigma-Aldrich) solution in 25% methanol for 30 min. Pictures were taken using a Nikon D3200 camera and images were analyzed using FIJI software. FIJI’s ‘Analyze Particles’ function was used to quantify numbers of colonies. Survival was calculated relative to untreated cells. Each experiment was performed in technical triplicates, and data shown represent combined data from at least three independent experiments.

pKAP1 (KAP1 S824) = assay: pKAP1 levels; conditions: 50 µg/ml phleomycin for 12 h; vs control cells
Procedure: as §1, §2, §3, §4, §5
N(images)>180, N(cells)>28,000. (E) Representa?ve images of phleomycin treated cells used for quan?ﬁca?ons in D. Shown are expressions of indicated proteins, with zoomed images of cells in coloured frames. (F) Analysis of pKAP1 levels by western blot. Treatments were as in D. (G) Box and whisker plots measuring KAP1 foci in control and ERCC6L2-/- cells. Cells were either untreated, or exposed to 50 µg /ml phleomycin for 12 h, before ﬁxa?on and staining. N(images)>180, N(cells)>28,000. B, E, H: Scale bar: 10 µm. A, D, G: Sta?s?cs […]

[3] = tested on: control and ERCC6L2^−/− U2OS cells; assay: Micronuclei formation; conditions: cells grown with damaging agents for 2 days; ERCC6L2^−/− vs control U2OS
Description: absence or presence of damaging agents for 2 days. CENPC and 53BP1 were used as centromeric and DSB markers, respec?vely. N(images) >140, N(cells)>50,000. (B) Quan?ﬁca?on of micronuclei subtypes in control and ERCC6L2-/- U2OS cells, as indicated. 53BP1 or γH2AX were used as DSB markers; CENP-C was used as a centromere marker; Telomeric repeat-binding factor 2-interac?ng protein 1 (RAP1) was used as a telomere marker. N(images)>400, N(cells)>30,000.

Molecule | nascent DNA protection, control vs ERCC6L2^−/− [1] | pRPA levels in treated ERCC6L2^−/− cells (pRPA32) | CENP-B intensities after 25 µg/ml phleomycin (CENP-B) | sensitivity of ERCC6L2-deficient cells [2] | pKAP1 levels in treated ERCC6L2^−/− cells (pKAP1 (KAP1 S824)) | micronuclei formation in ERCC6L2-deficient cells [3]
NC(=O)NO [hydroxyurea] | did not observe significant differences in nascent DNA protection | – | – | – | – | –
phleomycin | – | increased levels of pRPA | not aﬀected by DNA damage | increased sensitivity | decreased levels of pKAP1 | increased frequency of micronuclei formation

From publication PMC12003248, “ERCC6L2 mitigates replication stress and promotes centromere stability” (Cell Reports, 2023)
